In patent publication US11427561B2, “IRAK4 inhibiting agents” (BIOGEN MA INC., priority 2016, dated 2022):

Tests used:
IRAK4 = IRAK4 (Homo sapiens (Human), UniProt Q9NWZ3); experiment: IRAK-4 biochemical assay, AlphaScreen format (phosphorylation of a biotin labeled peptide); conditions: 1 nM IRAK4, 1.6 μM peptide, 1 mM ATP, 3.5 h at RT
Method: Biochemical Assay: The biochemical assay is in a AlphaScreen format. The kinase reaction is based on the IRAK-4 phosphorylation of a biotin labeled peptide. The phosphopeptide is incubated with anti-phosphothreonine antibody as well as streptavidin- and protein A-coated beads. Binding of the protein-A coated beads to the antibody and the streptavidin beads to the peptide, leads to an energy transfer from one bead to the other, ultimately producing a luminescent/fluorescent signal.
Generally, the kinase reaction is carried out at 1 nM IRAK4, 1.6 μM peptide, 1 mM ATP in reaction buffer 50 mM Hepes, 60 mM NaCl, 5 mM MgCl2, 0.25 mM MnCl2, 2 mM DTT, 0.01% BSA, 0.01% Tween-20) for 3.5 h at RT.
The compounds described herein were tested for in the above biochemical assay.

A549 cells = experiment: Cell-based assay: IL-6 ELISA quantification in A549 cells stimulated with human IL-1beta; conditions: 2 ng/ml human IL-1beta overnight
Method: Cell-based Assay: The cell-based assays is based on IL-6 ELISA quantification. Briefly, A549 cells are cultured in DMEM with 10% FBS medium. When cells reach 80% confluence they are trypsin treated and seeded 180 ul/well in 96-well plate at 2.5×10^4 cells/well. Then, 20 ul of compound serial dilutions (starting at 10 uM, 10 points) are added to the cell plate; incubate for 30 min at 37 C and stimulated with 2 ng/ml human IL-1beta 37 C, 5% CO2 overnight. The next day 100 ul of cell supernatant per well are analyzed on a Human IL-6 Quantikine ELISA kit from R&D Systems.
The compounds described herein were tested for in the above biochemical and cell-based assays.

IRAK4, sequence (Q9NWZ3 whole entry, species assumed): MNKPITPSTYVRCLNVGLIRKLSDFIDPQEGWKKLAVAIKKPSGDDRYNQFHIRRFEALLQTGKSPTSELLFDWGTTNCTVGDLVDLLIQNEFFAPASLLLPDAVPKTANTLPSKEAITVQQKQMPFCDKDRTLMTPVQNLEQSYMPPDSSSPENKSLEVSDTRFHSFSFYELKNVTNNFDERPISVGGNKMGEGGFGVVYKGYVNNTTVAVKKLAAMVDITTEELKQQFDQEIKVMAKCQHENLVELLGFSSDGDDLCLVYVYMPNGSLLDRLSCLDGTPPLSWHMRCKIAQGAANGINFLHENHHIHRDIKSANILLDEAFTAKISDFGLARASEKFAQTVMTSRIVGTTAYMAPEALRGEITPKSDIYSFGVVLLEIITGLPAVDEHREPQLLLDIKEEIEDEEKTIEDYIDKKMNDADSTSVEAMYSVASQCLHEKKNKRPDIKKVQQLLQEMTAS

SMILES	IC50 (IRAK4)	EC50 (A549 cells; Homo sapiens, A549, A549 cells)	EC50 (A549 cells; A549 cells)
N[C@H](c1cncc(-c2ccc3cnn(-c4cccc(CF)n4)c3c2)n1)[C@H]1C[C@@H](O)C1 [Compound 18, cis-3-((S)-amino(6-(1-(6-(fluoromethyl)pyridin-2-yl)-1H-indazol-6-yl)pyrazin-2-yl)methyl)cyclobutanol]	0.1 to 1 µM		
CC1(O)CC([C@H](N)c2cccc(-c3ccc4cnn(-c5cccc(CF)n5)c4c3)n2)C1 (stereo partly drawn) [Compound 35i, 3-((S)-amino(6-(1-(6-(fluoromethyl)pyridin-2-yl)-1H-indazol-6-yl)pyridin-2-yl)methyl)-1-methylcyclobutan-1-ol]	0.1 to 1 µM		1 to 10 µM
N[C@H](c1cccc(-c2ccc3cnn(-c4cccc(CO)n4)c3c2)n1)C1CC(CO)C1 (stereo partly drawn) [Compound 3, (S)-(6-(6-(6-(amino(3-(hydroxymethyl)cyclobutyl)methyl)pyridin-2-yl)-1H-indazol-1-yl)pyridin-2-yl)methanol]			≤ 1 µM
N[C@@H](c1cccc(-c2ccc3cnn(-c4cccc(CO)n4)c3c2)n1)C1(F)CCC1 [Compound 31, (S)-(6-(6-(6-(amino(1-fluorocyclobutyl)methyl)pyridin-2-yl)-1H-indazol-1-yl)pyridin-2-yl)methanol]	≤ 0.1 µM		
N[C@H](c1cccc(-c2ccc3cnn(-c4cccc(CO)n4)c3c2)n1)C1(F)CCC1 [Compound 35c, (R)-(6-(6-(6-(amino(1-fluorocyclobutyl)methyl)pyridin-2-yl)-1H-indazol-1-yl)pyridin-2-yl) methanol]		1 to 10 µM	
CC1([C@H](N)c2cccc(-c3ccc4cnn(-c5cccc(CF)n5)c4c3)n2)CCC1 [Compound 35k, (S)-(6-(1-(6-(fluoromethyl)pyridin-2-yl)-1H-indazol-6-yl)pyridin-2-yl)(1-methylcyclobutyl)methanamine]		1 to 10 µM	
N#CC1(c2cccc(-n3ncc4ccc(-c5cccc([C@@H](N)[C@H]6C[C@@H](O)C6)n5)cc43)n2)CC1 [Compound 20, 1-(6-(6-(6-((S)-amino(cis-3-hydroxycyclobutyl)methyl)pyridin-2-yl)-1H-indazol-1-yl)pyridin-2-yl)cyclopropanecarbonitrile]	≤ 0.1 µM		
N#CC1CC([C@H](N)c2cccc(-c3ccc4cnn(-c5cccc(CF)n5)c4c3)n2)C1 (stereo partly drawn) [Compound 35l, (S)-3-(amino(6-(1-(6-(fluoromethyl)pyridin-2-yl)-1H-indazol-6-yl)pyridin-2-yl)methyl)cyclo butane-1-carbonitrile]		≤ 1 µM	
N[C@@H](c1cccc(-c2ccc3cnn(-c4cccc(CO)n4)c3c2)n1)C1(F)CCC1 [Compound 35d, (S)-(6-(6-(6-(amino(1-fluorocyclobutyl)methyl)pyridin-2-yl)-1H-indazol-1-yl)pyridin-2-yl) methanol]		≤ 1 µM	
CO[C@H]1C[C@H]([C@H](N)c2cccc(-c3ccc4cnn(-c5cccc(C(F)F)n5)c4c3)n2)C1 [Compound 35j, (S)-(6-(1-(6-(difluoromethyl)pyridin-2-yl)-1H-indazol-6-yl)pyridin-2-yl)((1R,3S)-3-methoxycyclobutyl)methanamine]		≤ 1 µM	

Further lines, results first:

IC50 (IRAK4)	EC50 (A549 cells; Homo sapiens, A549, A549 cells)	EC50 (A549 cells; A549 cells)	SMILES
≤ 0.1 µM	1 to 10 µM		CCc1cccc(-n2ncc3ccc(-c4cccc([C@@H](N)[C@H]5C[C@@H](O)C5)n4)cc32)n1 [Compound 12, (1R,3s)-3-((S)-amino(6-(1-(6-ethylpyridin-2-yl)-1H-indazol-6-yl)pyridin-2-yl)methyl)cyclobutanol]
≤ 0.1 µM			N[C@H](c1cncc(-c2ccc3cnn(-c4cccc(C(F)(F)F)n4)c3c2)n1)[C@H]1C[C@@H](O)C1 [Compound 19, cis-3-((S)-amino(6-(1-(6-(trifluoromethyl)pyridin-2-yl)-1H-indazol-6-yl)pyrazin-2-yl)methyl)cyclobutanol]
≤ 0.1 µM	≤ 1 µM		N[C@H](c1cccc(-c2ccc3cnn(-c4cccc(C(F)F)n4)c3c2)n1)[C@H]1C[C@@H](O)C1 [Compound 14, cis-3-((S)-amino(6-(1-(6-(difluoromethyl)pyridin-2-yl)-1H-indazol-6-yl)pyridin-2-yl)methyl)cyclobutanol]
≤ 0.1 µM			N[C@H](c1cccc(-c2ccc3cnn(-c4cccc(CO)n4)c3c2)n1)C1(F)CCC1 [Compound 32, (R)-(6-(6-(6-(amino(1-fluorocyclobutyl)methyl)pyridin-2-yl)-1H-indazol-1-yl)pyridin-2-yl)methanol]
≤ 0.1 µM	≤ 1 µM		N[C@H](c1cccc(-c2ccc3cnn(-c4cccc(CO)n4)c3c2)n1)[C@H]1C[C@@H](O)C1 [Compound 4, cis-3-((S)-amino(6-(1-(6-(hydroxymethyl)pyridin-2-yl)-1H-indazol-6-yl)pyridin-2-yl)methyl)cyclobutanol]
≤ 0.1 µM	≤ 1 µM		N[C@@H](c1cccc(-c2ccc3cnn(-c4cccc(CO)n4)c3c2)n1)[C@H]1C[C@H](O)C1 [Compound 7, trans-3-((R)-amino(6-(1-(6-(hydroxymethyl)pyridin-2-yl)-1H-indazol-6-yl)pyridin-2-yl)methyl)cyclobutanol]
≤ 0.1 µM	≤ 1 µM		N[C@H](c1cncc(-c2ccc3cnn(-c4cccc(CO)n4)c3c2)n1)[C@H]1C[C@@H](O)C1 [Compound 17, cis-3-((S)-amino(6-(1-(6-(hydroxymethyl)pyridin-2-yl)-1H-indazol-6-yl)pyrazin-2-yl)methyl)cyclobutanol]
≤ 0.1 µM	≤ 1 µM		N[C@@H](c1cccc(-c2ccc3cnn(-c4cccc(CO)n4)c3c2)n1)C1CC(CO)C1 (stereo partly drawn) [Compound 2, (R)-(6-(6-(6-(amino(3-(hydroxymethyl)cyclobutyl)methyl)pyridin-2-yl)-1H-indazol-1-yl)pyridin-2-yl)methanol]
≤ 0.1 µM	≤ 1 µM		CC1(O)CC([C@H](N)c2cccc(-c3ccc4cnn(-c5cccc(C(F)F)n5)c4c3)n2)C1 (stereo partly drawn) [Compound 35g, 3-((S)-amino(6-(1-(6-(difluoromethyl)pyridin-2-yl)-1H-indazol-6-yl)pyridin-2-yl)methyl)-1-methylcyclobutan-1-ol]
≤ 0.1 µM		≤ 1 µM	NC(c1cccc(-c2ccc3cnn(-c4cccc(CO)n4)c3c2)n1)C1CCC(O)C1 (single isomer, unassigned) [Compound 23, 3-(amino(6-(1-(6-(hydroxymethyl)pyridin-2-yl)-1H-indazol-6-yl)pyridin-2-yl)methyl)cyclopentanol-C]
≤ 0.1 µM	≤ 1 µM		CCOc1cc(-c2cccc([C@@H](N)C3CC(F)(F)C3)n2)cc2c1cnn2-c1cccc(CO)n1 [Compound 34, (S)-(6-(6-(6-(amino(3,3-difluorocyclobutyl)methyl)pyridin-2-yl)-4-ethoxy-1H-indazol-1-yl)pyridin-2-yl)methanol]
≤ 0.1 µM	≤ 1 µM		N[C@H](c1cccc(-c2ccc3cnn(-c4cccc(CO)n4)c3c2)n1)[C@H]1C[C@H](O)C1 [Compound 6, trans-3-((S)-amino(6-(1-(6-(hydroxymethyl)pyridin-2-yl)-1H-indazol-6-yl)pyridin-2-yl)methyl)cyclobutanol]
≤ 0.1 µM	≤ 1 µM		N[C@H](c1cccc(-c2ccc3cnn(-c4cccc(CO)n4)c3c2)n1)C1CC(F)(F)C1 [Compound 26, (S)-(6-(6-(6-(amino(3,3-difluorocyclobutyl)methyl)pyridin-2-yl)-1H-indazol-1-yl)pyridin-2-yl)methanol]
